The results in this text go back to ChEMBL document CHEMBL1135113 (Bioorg Med Chem Lett, 2002).

Activity calls are given as the source filed them. The calls are words filed in the database; no cut-off is given here.

Assay [1] deals with T1, Integrin alpha-IIb/beta-3 (Homo sapiens, UniProt P05106+P08514). As to the kind of experiment: Selectivity against Integrin alpha-IIb beta-3 receptor versus fibrinogen; Not active. Format: protein-complex assay.
A further assay is filed under the species Homo sapiens. As to the kind of experiment: Efficacy of compound in cell migration of primary human Smooth Muscle Cells (SMC) was determined. The class given is functional.
The target in assay [2] is T2, Integrin alpha-4/beta-1 (Homo sapiens) (UniProt P05556+P13612). The assay is described as follows: Cell adhesion activity against alpha4-beta1 integrin at 10 e-5M (not active). Format: protein-complex assay.
The target in assay [3] is Integrin alpha-5/beta-1 (Homo sapiens) (UniProt P05556+P08648). The assay is described as follows: Cell adhesion activity against alpha5-beta1 integrin. Format: protein-complex assay.
In another assay the target is Integrin alpha-V/beta-3 (Homo sapiens, UniProt P05106+P06756). As to the kind of experiment: Selectivity against alphaV-beta3 integrin. The class given is protein-complex assay.
Integrin alpha-V/beta-3, sequence (P05106 27-788 limits assumed): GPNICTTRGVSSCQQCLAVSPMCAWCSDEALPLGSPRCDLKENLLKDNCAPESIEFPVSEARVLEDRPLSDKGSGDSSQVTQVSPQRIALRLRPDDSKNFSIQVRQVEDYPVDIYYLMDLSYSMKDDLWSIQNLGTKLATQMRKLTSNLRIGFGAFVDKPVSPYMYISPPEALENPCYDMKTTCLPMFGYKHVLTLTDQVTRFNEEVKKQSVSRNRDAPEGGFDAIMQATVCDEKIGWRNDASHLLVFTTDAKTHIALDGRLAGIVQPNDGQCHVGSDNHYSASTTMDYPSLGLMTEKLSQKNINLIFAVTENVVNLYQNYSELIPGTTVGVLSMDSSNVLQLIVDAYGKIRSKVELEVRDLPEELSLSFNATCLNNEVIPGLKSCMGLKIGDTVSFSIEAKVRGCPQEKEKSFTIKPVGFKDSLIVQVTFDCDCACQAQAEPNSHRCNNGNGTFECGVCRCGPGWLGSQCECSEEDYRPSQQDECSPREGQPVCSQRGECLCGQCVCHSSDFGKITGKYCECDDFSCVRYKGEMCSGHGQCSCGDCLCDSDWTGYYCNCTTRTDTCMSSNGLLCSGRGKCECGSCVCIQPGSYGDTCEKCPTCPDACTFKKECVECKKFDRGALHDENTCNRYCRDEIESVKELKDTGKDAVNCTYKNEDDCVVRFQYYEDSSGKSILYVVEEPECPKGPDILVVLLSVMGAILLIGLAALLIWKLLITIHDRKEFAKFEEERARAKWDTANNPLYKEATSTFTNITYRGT
Integrin alpha-V/beta-3, sequence (P06756 31-889 limits assumed): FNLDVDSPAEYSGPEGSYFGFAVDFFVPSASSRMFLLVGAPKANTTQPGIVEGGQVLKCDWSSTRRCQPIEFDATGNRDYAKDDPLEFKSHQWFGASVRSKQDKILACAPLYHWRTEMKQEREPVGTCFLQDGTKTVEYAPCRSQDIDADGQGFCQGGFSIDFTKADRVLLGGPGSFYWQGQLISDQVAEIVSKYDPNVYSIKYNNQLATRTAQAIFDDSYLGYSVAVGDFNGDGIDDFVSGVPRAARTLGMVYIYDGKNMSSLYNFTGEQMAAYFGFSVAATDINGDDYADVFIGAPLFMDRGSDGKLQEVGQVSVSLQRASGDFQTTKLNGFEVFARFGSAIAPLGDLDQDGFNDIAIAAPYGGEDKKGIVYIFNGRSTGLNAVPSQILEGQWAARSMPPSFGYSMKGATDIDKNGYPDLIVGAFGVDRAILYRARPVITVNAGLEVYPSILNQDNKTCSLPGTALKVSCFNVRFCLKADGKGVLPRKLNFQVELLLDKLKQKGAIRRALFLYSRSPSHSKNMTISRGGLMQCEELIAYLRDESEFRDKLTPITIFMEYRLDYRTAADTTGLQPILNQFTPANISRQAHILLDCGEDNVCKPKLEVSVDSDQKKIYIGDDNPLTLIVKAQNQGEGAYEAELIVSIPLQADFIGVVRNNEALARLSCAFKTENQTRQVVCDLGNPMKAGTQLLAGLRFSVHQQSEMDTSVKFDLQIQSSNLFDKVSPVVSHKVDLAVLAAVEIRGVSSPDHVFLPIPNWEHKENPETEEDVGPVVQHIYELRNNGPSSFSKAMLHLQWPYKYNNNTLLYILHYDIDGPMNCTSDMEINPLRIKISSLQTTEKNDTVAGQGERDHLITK
Integrin alpha-V/beta-3, sequence (P06756 891-1048 limits assumed): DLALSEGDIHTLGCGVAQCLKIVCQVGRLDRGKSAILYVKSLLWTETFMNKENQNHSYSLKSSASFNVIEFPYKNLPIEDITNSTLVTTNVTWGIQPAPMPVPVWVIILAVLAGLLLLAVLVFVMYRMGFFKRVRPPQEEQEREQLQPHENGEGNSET
Assay [4] has as its target T1, Integrin alpha-IIb/beta-3. The assay is described as follows: Selectivity against alpha IIb beta-3 integrin; Not active. The class given is protein-complex assay.
Assay [5] concerns the target T2, Integrin alpha-4/beta-1 (Homo sapiens). The assay is described as follows: Cell adhesion activity against alpha4-beta1 integrin at 10e-5 M. The class given is protein-complex assay.

T1 sequence (P05106 27-788 limits assumed): as the sequence (P05106 27-788 limits assumed) above
T1 sequence (P08514 32-887 limits assumed): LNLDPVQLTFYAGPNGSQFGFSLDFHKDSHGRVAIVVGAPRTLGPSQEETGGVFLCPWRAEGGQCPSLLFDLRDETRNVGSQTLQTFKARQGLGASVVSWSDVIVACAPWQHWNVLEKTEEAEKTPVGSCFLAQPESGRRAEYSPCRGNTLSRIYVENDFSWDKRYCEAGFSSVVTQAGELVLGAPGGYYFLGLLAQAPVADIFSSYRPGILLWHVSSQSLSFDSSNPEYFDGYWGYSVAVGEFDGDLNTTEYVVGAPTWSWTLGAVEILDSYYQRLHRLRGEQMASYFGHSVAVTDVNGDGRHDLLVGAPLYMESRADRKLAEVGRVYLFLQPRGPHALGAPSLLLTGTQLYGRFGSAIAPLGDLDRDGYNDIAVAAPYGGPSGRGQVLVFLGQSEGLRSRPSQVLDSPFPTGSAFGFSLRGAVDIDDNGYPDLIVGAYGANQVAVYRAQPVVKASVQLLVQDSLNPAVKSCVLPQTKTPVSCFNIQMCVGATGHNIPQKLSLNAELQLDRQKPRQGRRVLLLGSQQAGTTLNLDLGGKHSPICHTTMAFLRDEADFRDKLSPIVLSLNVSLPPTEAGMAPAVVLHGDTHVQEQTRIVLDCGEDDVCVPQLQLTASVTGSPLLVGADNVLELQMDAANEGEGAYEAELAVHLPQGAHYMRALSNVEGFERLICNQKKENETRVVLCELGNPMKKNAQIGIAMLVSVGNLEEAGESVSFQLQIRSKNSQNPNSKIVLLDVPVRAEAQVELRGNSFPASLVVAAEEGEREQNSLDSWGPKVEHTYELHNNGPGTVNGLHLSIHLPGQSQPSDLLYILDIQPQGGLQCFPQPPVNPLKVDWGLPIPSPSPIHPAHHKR
T1 sequence (P08514 891-1039 limits assumed): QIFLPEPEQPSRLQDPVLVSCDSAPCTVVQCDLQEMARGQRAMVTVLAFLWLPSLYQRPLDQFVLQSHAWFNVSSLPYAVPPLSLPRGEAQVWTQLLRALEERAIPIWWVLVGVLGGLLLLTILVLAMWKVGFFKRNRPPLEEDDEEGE

As to `O=C(CNC(=O)c1cnc(NC(=O)NCc2ccccc2)o1)NC[C@H](NC(=O)OCc1ccccc1)C(=O)O`, the IC50 result is “Not Active” in assay [1], 500 nM in the assay filed under Homo sapiens and 1.8 nM against Integrin alpha-V/beta-3. For the same molecule, the inhibition entry in assay [2] and in assay [3] was “inactive” throughout.

Turning to `O=C(CNC(=O)c1ccc(NC(=O)NCc2ccccc2)o1)NC[C@H](NC(=O)OCc1ccccc1)C(=O)O`, the IC50 was 1200 nM in the assay filed under Homo sapiens, “Not Active” in assay [4] and 0.4 nM at Integrin alpha-V/beta-3. Also, the inhibition in assay [5] was found to be 2%. In addition, in assay [3], the inhibition entry is “inactive”.

The term IC50 denotes the point on the concentration scale where inhibition reaches its midpoint. Read a low IC50 as greater potency in that assay. Broadly, the inhibition is the drop in the measured response relative to a control, in per cent.
